The values that follow come from patent US20250281610A1, “P2RY2 ACTIVITY MODULATORS” (Deutsches Krebsforschungszentrum Stiftung des öffentlichen …, priority 2022, published 2025).

Each structure is given as a SMILES string.

For one assay, the system named is BxPC3 cells. The assay can be described thus: Viability of BxPC3 cells in co-culture with MART-1-specific TCR-T cells (CellTiter-Blue). The class given is cell-based, human. The following applies: single agent: 5 μM AR-C, 10 μg/ml atezolizumab or 10 μg/ml durvalumab, 6-24 hours (FIG. 11). From the text: FIG. 11. […] Untreated cells served as the control.
MART-1 specific T cells were generated as described (Mezzadra et al., Nature 549, 106-110 (2017); Jorritsma et al., Blood 110 (10): 3564-3572. (2007)). To generate CD33-specific chimeric antigen receptor (CAR) T cells, a CD33Hul95-CD28Z CAR (described in WO 2019/178382) cassette was cloned into a retroviral vector, and the resulting virus was used to transduce T cells as described (Mezzadra et al., Nature 549, 106-110 (2017); Jorritsma et al., Blood 110 (10): 3564-3572. (2007)).
MART1-specific CD8+ T cells and MART1 epitope-expressing cancer cells were mixed at a ratio of 1:16 to 1:4. Next, cells were centrifugated at 1,600 g for 3 min and incubated at 37° C. and 5% CO2 for 12-72 hours. T cell activation was assessed by surface staining with anti-CD137-BV421 (4-1BB, Biolegend), anti-CD69-APC/Fire™ 750 (FN50, Biolegend), anti-CD25-AF700 (BC96, Biolegend) antibodies and intracellular staining with anti-IL-2-PE/Cy7 (MQ1-17H12, Biolegend), anti-IFN-7-BV421 (4S.B3, Biolegend), anti-TNF-α-BV785 (MAb11, Biolegend) antibodies, followed by flow cytometry analysis. For intracellular staining, brefeldin A (Biolegend) was added to the cell culture medium 4 h before cells were harvested. The viability of cancer cells that grow in suspension including THP-1 cells was assessed by flow cytometry-based absolute cell counting using AccuCount beads (Spherotech). For adherent cancer cells including BxPC3 and MCF7, the cell viability was quantified using CellTiter-Blue Cell Viability Assay (Promega).
(In general: Resazurin is reduced to fluorescent resorufin, in cell work by metabolically active cells.)

The next assay relates to THP-1 cells. Briefly: Viability of THP-1 cells in co-culture with CD33-specific CAR-T cells (flow cytometry-based cell counting). The following applies: 5 μM AR-C. Details: species or system human. How it is done:
FIG. 8. Effects of P2RY2 antagonist on T cells and cancer cells in T cell-cancer cell co-cultures. T cells transduced with CD33-specific CAR (CAR-T) were co-cultured with genetically edited THP-1 cells in the absence or presence of 5 μM AR-C 118925XX (AR-C) for 6-24 hours. Control cells: THP-1 cells transduced with non-targeting sgRNA and Cas9 (gNT); P2RY2 deficient cells: THP-1 cells transduced with P2RY2-targeting sgRNA and Cas9 (gP2RY2-3, gP2RY2-4); B7-H3 (CD276) deficient cells: THP-1 cells transduced with B7-H3-targeting sgRNA and Cas9 (gCD276-1); P2RY2 and B7-H3 double deficient cells: THP-1 cells transduced with P2RY2-targeting sgRNA, B7-H3-targeting sgRNA, and Cas9 (gCD276-1 gP2RY2-3 DKO, gCD276-1 gP2RY2-4 DKO); P2RY2 overexpression cells: THP-1 cells transduced with the open reading frame of P2RY2 (P2RY2-OE); B7-H3 overexpression cells: THP-1 cells transduced with the open reading frame of CD276 (CD276-OE). […]
FIG. 9. […] Control cells THP-1 cells transduced with non-targeting sgRNA and Cas9 (Ctrl.); P2RY2 overexpression cells: THP-1 cells transduced with the open reading frame of P2RY2 (P2RY2-OE). […]
The open reading frames of transcripts of P2RY2(ENST00000393597.7) or CD276(ENST00000318443.10), were ordered as a codon optimized gBlock Gene Fragment (Integrated DNA Technologies or Twist Bioscience) and cloned into a lentiviral vector containing a blasticidin selection cassette. […]
MART1-specific CD8+ T cells and MART1 epitope-expressing cancer cells were mixed at a ratio of 1:16 to 1:4. […] T cell activation was assessed by surface staining with anti-CD137-BV421 (4-1BB, Biolegend), anti-CD69-APC/Fire™ 750 (FN50, Biolegend), anti-CD25-AF700 (BC96, Biolegend) antibodies and intracellular staining with anti-IL-2-PE/Cy7 (MQ1-17H12, Biolegend), anti-IFN-7-BV421 (4S.B3, Biolegend), anti-TNF-α-BV785 (MAb11, Biolegend) antibodies, followed by flow cytometry analysis. […] The viability of cancer cells that grow in suspension including THP-1 cells was assessed by flow cytometry-based absolute cell counting using AccuCount beads (Spherotech). […]

Turning to `Cc1ccc2c(c1)C=Cc1cc(C)ccc1C2c1cn(Cc2ccc(C(=O)Nc3nn[nH]n3)o2)c(=O)[nH]c1=S` [AR-C 118925XX], in the assay with BxPC3 cells, the “viability of BxPC3 cells” value was “reduced”. The “viability of P2RY2 proficient THP-1 cells” value with THP-1 cells (6-24 hours, co-culture with CD33-specific CAR-T cells (FIG. 8)) was “reduced”. The “viability of tumor cells upon P2RY2 deletion” value in the assay on THP-1 cells (P2RY2 deficient THP-1 cells, CAR-T cell-THP-1 cell coculture (FIG. 8)) is recorded as “does not influence”.
